Reference: paper PMC10911062, “Identification and structural validation of purine nucleoside phosphorylase from Plasmodium falciparum as a target of MMV000848” (The Journal of Biological Chemistry, 2023)
Read-outs that look alike come from different tables or passages of the source.

Legend:
[1] = molecular target: T1, Purine nucleoside phosphorylase (PfPNP) (Plasmodium falciparum, UniProt Q8I3X4); assay: xanthine oxidase-coupled inosine phosphorolysis assay; format: biochemical
T1 construct: gene PNP
T1 sequence (Q8I3X4 1-245): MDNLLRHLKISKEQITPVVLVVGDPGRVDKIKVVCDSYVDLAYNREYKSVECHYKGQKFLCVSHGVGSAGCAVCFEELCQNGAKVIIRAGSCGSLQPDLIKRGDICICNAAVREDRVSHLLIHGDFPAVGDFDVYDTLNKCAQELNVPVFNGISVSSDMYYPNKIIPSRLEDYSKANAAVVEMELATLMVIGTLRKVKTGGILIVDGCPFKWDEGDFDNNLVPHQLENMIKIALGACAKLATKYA

Falcilysin = molecular target: T2, Falcilysin (Plasmodium falciparum, UniProt Q76NL8); assay: MS-CETSA (ITDR), intact infected erythrocytes and parasite lysate; minimal dose threshold; format: cell-based
T2 construct: gene FLN

[2] = molecular target: T1, Purine nucleoside phosphorylase (PfPNP); assay: ITC; cocrystal structure at […] Å; also DSF, CETSA and enzyme inhibition (IC50 […], Ki […]); format: binding
[3] = molecular target: T1, Purine nucleoside phosphorylase (PfPNP); assay: Michaelis-Menten kinetics of the purified enzyme; format: biochemical
[4] = molecular target: the molecule itself; assay: crystal structure; co-crystal of PfPNP (37 mg/ml) with 3 mM MMV000848, sitting-drop vapor diffusion at 20 °C, 10% (w/v) PEG 1000; 1.85 Å, space group R32; hexamer formed through crystallographic symmetry

T2 sequence (Q76NL8 whole entry): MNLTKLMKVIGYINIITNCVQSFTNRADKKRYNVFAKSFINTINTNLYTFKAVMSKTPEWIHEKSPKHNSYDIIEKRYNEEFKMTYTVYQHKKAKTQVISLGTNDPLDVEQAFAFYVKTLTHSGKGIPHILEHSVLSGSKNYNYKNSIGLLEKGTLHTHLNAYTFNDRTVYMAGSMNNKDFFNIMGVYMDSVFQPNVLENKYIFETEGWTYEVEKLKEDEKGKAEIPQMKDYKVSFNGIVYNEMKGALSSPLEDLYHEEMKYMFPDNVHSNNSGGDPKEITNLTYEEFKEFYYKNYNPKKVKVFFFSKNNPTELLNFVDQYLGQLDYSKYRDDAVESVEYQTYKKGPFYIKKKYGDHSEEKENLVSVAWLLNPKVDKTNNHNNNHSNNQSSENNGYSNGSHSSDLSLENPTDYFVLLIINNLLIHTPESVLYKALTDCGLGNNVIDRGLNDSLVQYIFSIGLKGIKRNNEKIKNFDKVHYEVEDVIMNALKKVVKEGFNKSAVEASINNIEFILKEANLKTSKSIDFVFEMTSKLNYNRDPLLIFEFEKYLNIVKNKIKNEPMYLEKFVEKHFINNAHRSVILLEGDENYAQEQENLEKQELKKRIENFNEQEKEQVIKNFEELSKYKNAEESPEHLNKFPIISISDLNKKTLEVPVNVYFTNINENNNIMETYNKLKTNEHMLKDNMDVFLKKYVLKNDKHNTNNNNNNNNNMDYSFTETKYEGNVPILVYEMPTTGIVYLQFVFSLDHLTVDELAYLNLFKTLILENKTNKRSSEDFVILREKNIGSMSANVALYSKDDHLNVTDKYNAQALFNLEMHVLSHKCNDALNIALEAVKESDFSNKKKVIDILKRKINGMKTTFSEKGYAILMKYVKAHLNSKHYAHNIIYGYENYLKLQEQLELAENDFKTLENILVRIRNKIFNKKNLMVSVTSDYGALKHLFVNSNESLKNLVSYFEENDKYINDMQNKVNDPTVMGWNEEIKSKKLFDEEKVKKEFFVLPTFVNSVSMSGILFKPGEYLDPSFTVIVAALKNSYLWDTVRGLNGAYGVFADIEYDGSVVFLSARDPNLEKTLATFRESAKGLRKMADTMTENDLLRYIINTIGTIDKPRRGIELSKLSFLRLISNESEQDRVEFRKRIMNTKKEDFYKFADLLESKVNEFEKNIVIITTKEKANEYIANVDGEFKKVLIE

OC(c1cc(C(F)(F)F)nc2c(C(F)(F)F)cccc12)C1CCCCN1 (racemic) [mefloquine]
IC50 [1]: 327 µM

OC(CNC1CCCC1)Cn1c2ccccc2c2ccccc21 (stereo not drawn) [MMV000848, 1-carbazol-9-yl-3-cyclopentylamino-propan-2-ol]
MDT (Falcilysin): 749.91 nM | Kd [2]: 1.52 µM

C=C[C@H]1C[N@@]2CC[C@H]1C[C@H]2[C@H](O)c1ccnc2ccc(OC)cc12 [quinine]
IC50 ([1]; read-out: IC50): 11.3 µM

O=c1[nH]cnc2c1ncn2[C@@H]1O[C@H](CO)[C@@H](O)[C@H]1O [inosine]
Michaelis-Menten kinetics of the purified enzyme [3]: Measurements of KM,app (apparent KM) of inosine was made in the presence of various concentrations of MMV000848

B1: Plasmodium falciparum purine nucleoside phosphorylase (enzyme)
chain: MDNLLRHLKISKEQITPVVLVVGDPGRVDKIKVVCDSYVDLAYNREYKSVECHYKGQKFLCVSHGVGSAGCAVCFEELCQNGAKVIIRAGSCGSLQPDLIKRGDICICNAAVREDRVSHLLIHGDFPAVGDFDVYDTLNKCAQELNVPVFNGISVSSDMYYPNKIIPSRLEDYSKANAAVVEMELATLMVIGTLRKVKTGGILIVDGCPFKWDEGDFDNNLVPHQLENMIKIALGACAKLATKYA
notes: Purine nucleoside phosphorylase of Plasmodium falciparum, PlasmoDB PF3D7_0513300; gene subcloned into pNIC-CH; Homo-hexamer (three 2-fold symmetrical dimers around a crystallographic three-fold axis); one protein chain in the asymmetric unit; also called PfPNP; PNP; source: Rosetta BL21-DE3 Escherichia coli, purified (IMAC on HisTrapHP, SEC on Superdex 200)
stoichiometry N [4]: 6
